Laboratory results taken from patent US20110064773A1, “PHARMACEUTICAL COMPOSITIONS COMPRISING A THYROID HORMON AND THEIR THERAPEUTIC USE” (UNIVERSITE JOSEPH FOURIER, priority 2007, published 2011).
“Also recorded” adds a separate entry of the source.

Tests used:
Assay type in all cases: in vivo, rat
[1] = tested on: Wistar rats; assay: Growth rate (body weight) and food intake of Wistar rats; details: for Body mass: 2.5 μg/100 g continuous
Description: Adult male rat bred in the animal room facilities of Laboratory of Fundamental and Applied Bioenergetics (Wistar strain) or purchased from Charles-River Laboratories, Domaine des oncins, L'ARBRESLE France [(genetically obese normoglycemic (Zucker or Fa/Fa) or diabetic (ZDF)] were caged individually in stainless steel hanging cages and maintained in a 22° C., 50±10% relative humidity and 12 h:12 h light:dark environment. All animals were fed ad libitum with a standard rat chow (Safe A04, Villemoisson, France) and tap water. Body mass and food intake were recorded twice/thrice a week and fresh food was provided at the same time to ensure minimal disturbance to the animals' food behavior.
Eight-week old rats (300 g±10 g) were anesthetized by simultaneous intraperitoneal injection of diazepam 4 mg/kg and ketamine 100 mg/kg. In order to maintain body temperature during the surgery (10 min), animals were placed on a warm blanket. After interscapular shaving, a small incision of 0.5 cm of the skin allows the subcutaneous implantation of a small pellet (containing rT3 or 3′,3-T2) with a 10-gauge precision trochar. The pellets, manufactured by Innovative Research of America (Sarasota, Fla., USA) are constituted of a biodegradable matrix that effectively and continuously release the active product in the animal.
[…] (reverseT3) or 3-3′ diiodothyronine (3-3′ T2) were used at different doses (5, 0.5, or 0.1 mg/pellet) were implanted in order to provide a continuous and constant drug delivery over 60 days (which represents 25 μg, 2.5 μg or 0.5 μg/day/100 g BW).
Wistar rats were treated with rT3 hormone by a daily intraperitoneal injection (IP) (25 μg/100 g BW), a daily sub-cutaneous injection (SC) (25 μg/100 g BW), or a per os administration included in the rat food (25 μg/100 g BW). The continuous and constant administration was performed by using a pellet (25 μg/100 g BW).
However the role of the administration site was further investigated by comparing continuous administration of rT3 by osmotic pump implanted either subcutaneously or intraperitonally with the reference treatment administered by sub-cutaneous pellets. Wistar rats were treated for 21 days with placebo, sub-cutaneous pellet or sub-cutaneous or intraperitoneal osmotic pumps. rT3 was administered continuously (2.5 μg/100 g).
Wistar rats were treated by a continuous and constant administration of low doses of rT3 by 3 different methods of administration: • a sub-cutaneous pellet, • an osmotic pump placed under the skin, and • an osmotic pump placed in the peritoneal cavity.

[2] = tested on: Wistar rats; assay: Plasma concentrations of glucose, triglycerides, cholesterol, FFA and HDL in Wistar rats; details: for Glycerol (FIG. 60C), plasma / HDL (FIG. 60D), plasma: 21 days
Text: These measurements were done on venous blood of the rats the day of the sacrifice.
(§1) At the end of the experimental period, animals were sacrificed by decapitation, in order to avoid the well-known effects of general anesthetics on mitochondrial metabolism. Blood samples were immediately collected and plasma was frozen for subsequent determination of serum metabolites and hormones. Liver, muscles and fat depots were quickly excised and weighed. Liver median lobe was rapidly freeze-clamped. Muscles (plantaris, soleus and gastrocnemius) were frozen in isopentane precooled in liquid nitrogen. Mesenteric fat consisted of adipose tissue surrounding the gastro-intestinal tract from the gastro-oesophageal sphincter to the end of the rectum with special care taken in distinguishing and removing the pancreas. Retroperitoneal fat pad was taken as the distinct depot behind each kidney along the lumbar muscles. Epididymal fat consisted of adipose tissue on top of the epididymis. For subcutaneous depot measurement, a rectangular piece of skin was taken on the right side of each animal from the median line of the abdomen between the spine and the right hip to the first rib. Interscapular brown adipose tissue was removed and dissected free from adjacent muscles and white adipose tissue. The heart ventricles, the right kidney and the spleen were also excised, weighed and frozen.
(§2) Glucose and 3-hydroxybutyrate (3-HB) were measured enzymatically and non esterified fatty acid (NEFA) by colorimetric assay (Wako Chemicals).
(§3) Triglycerides and cholesterol were measured by classical routine automate apparatus.

[3] = tested on: Wistar rats; assay: Oral glucose tolerance test (OGTT) and pancreas mass in non-diabetic Wistar rats; details: 2.5 μg/100 g BW, vs placebo
Description: Wistar rats are non-diabetic, non-obese without insulin-resistance, however like in humans, they tend to get slightly obese and insulin resistant with age. However this is supposed to be “physiological”.
The glucose resistance of these animals was tested by an oral glucose tolerance test (OGTT). Animals were fed with 2 g/kg BW of glucose and the Glucose concentration and Insulin concentration in blood were measured.

[4] = tested on: Wistar rats; assay: Body composition (adipose tissues, skeletal muscles, brown adipose tissue) of Wistar rats; details: for White adipose tissue mass / Brown adipose tissue: 2.5 μg/100 g continuous
Text: as §1

[5] = tested on: ZDF rats; assay: Plasma lipid profiles of ZDF rats; details: 2.5 μg/100 g BW, day of sacrifice
Text: as §1, §2, §3
To better understand the lipid metabolism, lipid profiles of free fatty acid (FFA, FIG. 29), triglycerides (FIG. 30), cholesterol (FIG. 31) and high density lipoprotein (HDL, FIG. 32) were analysed.

[6] = Wistar rats, high dosage 25 μg/100 g BW
[7] = Wistar rats, high dose 250 μg/kg BW/day, day of sacrifice, vs placebo
[8] = Wistar rats, low dosage 2.5 μg/100 g BW
[9] = 25 μg/100 g BW/day, continuous subcutaneous pellet, 8 days
[10] = 250 μg/kg BW pellet, three weeks, vs placebo, p<0.01
[11] = high dose 25 μg/100 g BW pellet, three weeks, vs placebo
[12] = low dose 2.5 μg/100 g BW, sub-cutaneous pellet, 21 days

N[C@@H](Cc1ccc(Oc2cc(I)c(O)c(I)c2)c(I)c1)C(=O)O [rT3, 3′,5′,3-triiodothyronine]
Body mass ([1]; osmotic pump in the peritoneal cavity, 21 days): significant reduction
Body mass ([1]; osmotic pump under the skin, 21 days): significant reduction
Food intake immediately after the pellet ([1]; 25 μg/100 g BW pellet, from day 4 until day 7): decrease
Influence on the animal mass (rat body weight) ([1]; 25 μg/100 g BW/day, continuous and constant administration (subcutaneous pellet), 8 days): reduce the rat body weight
Growth rate (body weight) ([1]; high dose 25 μg/100 g BW, subcutaneous pellet, 21 days, vs placebo): did not show any weight gain; also recorded: reduce the body weight
Appetite (food intake) ([1]; low dose 2.5 μg/100 g BW): without modifying their appetite
Body weight (body mass) ([1]; low dose 2.5 μg/100 g BW, sub-cutaneous pellet, 21 days, vs placebo): reduce the body weight; also recorded: significant reduction
Cholesterol plasmatic concentration ([2]; Wistar rats, 250 μg/kg BW/day, day of sacrifice, vs placebo): significantly lower
Glycerol (FIG. 60C), plasma [2, 6]: reduction
HDL (FIG. 60D), plasma [2, 6]: reduction
Plasma free fatty acids (FFA) [2, 7]: higher; also recorded: stimulates the liberation of FFA
Triglycerides plasmatic concentration [2, 7]: significantly lower; also recorded: degradation of triglycerides
Glycerol (FIG. 60C), plasma [2, 8]: reduction
HDL (FIG. 60D), plasma [2, 8]: reduction
Fasting glucose plasmatic concentration ([2]; normal (non diabetic) Wistar rats, 250 μg/kg BW/day, day of sacrifice, vs placebo): slightly increased
AUC of the glucose concentration after OGTT ([3]; 2 g/kg glucose, 3 hours): slightly reduced, however not significantly
AUC of the insulin concentration after OGTT ([3]; 2 g/kg glucose, 3 hours): significantly lower
Pancreas mass [3]: moderate, albeit significant, increase
White adipose tissue mass ([4]; intra-peritoneal osmotic pump, 21 days): significant reduction
Brown adipose tissue ([4]; intra-peritoneal pump, 21 days): all treatments were effective
White adipose tissue mass ([4]; sub-cutaneous osmotic pump, 21 days): significant reduction
Brown adipose tissue ([4]; sub-cutaneous pump, 21 days): more significantly enhanced
Muscular mass ([4]; 25 μg/100 g BW, 8 days, whatever the administration (pellet, IP, per os, sc)): unchanged
White fatty (adipose) tissue mass ([4]; 25 μg/100 g BW, daily intra-peritoneal injection, 8 days): have not effects
White fatty (adipose) tissue mass ([4]; 25 μg/100 g BW, daily oral administration, 8 days): have not effects
White fatty (adipose) tissue mass ([4]; 25 μg/100 g BW, daily sub-cutaneous injection, 8 days): have not effects
Brown adipose tissue mass [4, 9]: significantly enhanced
White fatty (adipose) tissue mass [4, 9]: significant white fatty tissue mass reduction
Epididymal fat mass ([4]; 250 μg/kg BW pellet, three weeks, vs placebo): not different
Mesenteric fat mass [4, 10]: significantly lower
Retroperitoneal fat mass [4, 10]: significantly lower
Subcutaneous fat mass [4, 10]: significantly lower
Brown adipose tissue mass [4, 11]: significantly increased; also recorded: high increase
Muscle mass (lean body mass) [4, 11]: not affected at all; also recorded: do not affect
Muscle tissues mass ([4]; low dose 2.5 μg/100 g BW): do not affect
Brown adipose tissue mass [4, 12]: intermediate increase; also recorded: more significantly enhanced
White adipose tissue mass (fat mass) [4, 12]: reduces the fat mass with a lower efficiency; also recorded: significant reduction
Cholesterol level [5]: not influenced
FFA in blood [5]: significantly enhanced
Triglycerides in blood [5]: significantly reduced
